# Results: patent publication US6992193B2, “Sulfonylamino phenylacetamide derivatives and methods of their use” (Adolor Corporation, priority 2003, dated 2006)
# Where a name gives a salt, the structure may show the parent alone. Read-outs that look alike come from different tables or passages of the source.
# Legend:
# [1] = target: T1, cloned human μ opioid receptor (Homo sapiens, UniProt P35372); test: [3H]diprenorphine binding to cloned human μ opioid receptor
# T1 construct: expressed in transfected cells
# T1 sequence (P35372 whole entry): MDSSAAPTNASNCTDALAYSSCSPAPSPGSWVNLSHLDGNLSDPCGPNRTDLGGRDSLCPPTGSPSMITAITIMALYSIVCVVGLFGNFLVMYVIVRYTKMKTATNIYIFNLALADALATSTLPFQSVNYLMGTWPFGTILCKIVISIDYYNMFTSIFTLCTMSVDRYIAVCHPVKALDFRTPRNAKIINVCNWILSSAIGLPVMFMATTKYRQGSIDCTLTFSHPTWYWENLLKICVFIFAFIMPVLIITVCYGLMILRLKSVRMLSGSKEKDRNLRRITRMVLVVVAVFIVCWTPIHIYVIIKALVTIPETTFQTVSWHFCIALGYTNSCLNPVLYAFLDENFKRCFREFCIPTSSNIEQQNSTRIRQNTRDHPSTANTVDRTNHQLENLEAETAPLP
# Procedure: (§1) IC50 values were obtained by nonlinear analysis of the data using GraphPad Prism version 3.00 for Windows (GraphPad Software, San Diego). Ki values were obtained by Cheng-Prusoff corrections of IC50 values.
# (§2) After dilution in buffer A and homogenization as before, membrane proteins (10-80 μg) in 250 μL were added to mixtures containing test compound and [^3H]diprenorphine (0.5 to 1.0 nM, 40,000 to 50,000 dpm) in 250 μL of buffer A in 96-well deep-well polystyrene titer plates (Beckman). After incubation at room temperature for one hour, the samples were filtered through GF/B filters that had been presoaked in a solution of 0.5% (w/v) polyethylenimine and 0.1% (w/v) bovine serum albumin in water. The filters were rinsed 4 times with 1 mL of cold 50 mM Tris HCl, pH 7.8 and radioactivity remaining on the filters determined by scintillation spectroscopy. Nonspecific binding was determined by the minimum values of the titration curves and was confirmed by separate assay wells containing 10 μM naloxone.
# (§3) To determine the equilibrium dissociation constant for the inhibitors (Ki), radioligand bound (cpm) in the presence of various concentrations of test compounds was measured. […] The nonlinear regression fit was performed using the program Prism® (GraphPad Software, San Diego, Calif.). The Ki values were then determined from the […] values by the following equation, [formula] • where [ligand] is the concentration of radioligand; and • Kd is the equilibrium dissociation constant for the radioligand.
# [2] = target: T2, cloned human δ opioid receptor (Homo sapiens, UniProt P41143); test: [3H]diprenorphine binding to cloned human δ opioid receptor
# T2 construct: expressed in transfected cells
# T2 sequence (P41143 whole entry): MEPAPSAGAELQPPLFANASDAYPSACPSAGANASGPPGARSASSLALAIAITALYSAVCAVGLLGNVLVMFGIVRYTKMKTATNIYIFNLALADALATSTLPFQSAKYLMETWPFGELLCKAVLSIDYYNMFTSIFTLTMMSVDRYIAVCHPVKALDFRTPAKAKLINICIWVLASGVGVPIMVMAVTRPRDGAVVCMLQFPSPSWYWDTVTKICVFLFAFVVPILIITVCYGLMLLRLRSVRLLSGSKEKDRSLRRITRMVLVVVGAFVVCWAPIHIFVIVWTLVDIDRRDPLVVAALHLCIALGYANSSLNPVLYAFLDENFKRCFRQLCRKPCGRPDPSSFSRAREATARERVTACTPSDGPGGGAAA
# Procedure: as §1, §2, §3
# [3] = target: T3, CYP2D6 (Homo sapiens, UniProt P10635); test: Inhibition of CYP2D6 catalyzed conversion of MAMC to HAMC; type: in vitro ADME
# T3 construct: purchased BD Biosciences
# T3 sequence (P10635 whole entry): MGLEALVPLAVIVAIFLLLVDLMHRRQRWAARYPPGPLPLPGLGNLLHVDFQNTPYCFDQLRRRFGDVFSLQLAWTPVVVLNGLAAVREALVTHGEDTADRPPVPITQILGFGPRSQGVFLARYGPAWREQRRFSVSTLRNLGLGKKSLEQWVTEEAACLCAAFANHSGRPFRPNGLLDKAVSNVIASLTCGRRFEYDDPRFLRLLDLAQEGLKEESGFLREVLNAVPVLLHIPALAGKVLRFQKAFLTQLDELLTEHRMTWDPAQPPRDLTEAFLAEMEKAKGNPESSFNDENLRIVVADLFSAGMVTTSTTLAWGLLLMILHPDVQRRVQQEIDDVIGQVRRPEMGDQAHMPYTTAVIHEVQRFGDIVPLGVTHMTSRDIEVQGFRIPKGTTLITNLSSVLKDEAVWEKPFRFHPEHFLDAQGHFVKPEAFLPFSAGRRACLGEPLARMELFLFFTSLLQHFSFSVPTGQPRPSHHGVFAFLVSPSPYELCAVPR
# Procedure: Inhibition of CYP2D6 Catalyzed Conversion of MAMC to HAMC
# Microsomes containing baculovirus expressed human recombinant CYP2D6 and MAMC were purchased from BD Biosciences. The method is a modification of the method provided by BD Biosciences.
# • Assay Buffer=50 mM KPO4, 15 μg/mL NADP^+, 0.30 mg/mL glucose-6-phosphate, 0.20 mg/mL MgCl2, 0.96 U/mL glucose-6-phosphate dehydrogenase, 2.5 μM MAMC, pH 7.4. • Dilution Buffer=50 mM KPO4, pH 7.4 • Enzyme Buffer=150 mM KPO4, pH 7.4 • Stop Solution=80% acetonitrile, 20% 0.5 M Tris Base Procedure:
# The assays were done in black 96 well plates (VWR Cat# 22221-572) and contained: 40 μL assay buffer, 10 μL test compound in dilution buffer and 50 μL of 10-15 pmol/mL CYP2D6 in enzyme buffer. Final concentrations: (100 mM KPO4, pH 7.4, 7.9 μM NADP^+, 0.36 mM glucose-6-phosphate, 0.4 mM MgCl2, 0.38 U/mL glucose-6-phosphate dehydrogenase, 1 μM MAMC (BD Biosciences), 0.5 pmol CYP2D6 (BD Biosciences))
# For large experiments, assay buffer and test compound were added using the MiniTrak IV (Packard Biosciences), otherwise they were added using 25-250 μL and 5-100 μL 8 channel electronic pipettors (BioHit). CYP2D6 was added using 25-250 μL 8 channel electronic pipettor.
# Titrations are done in either 96 well deep-well plates (Beckman) or 96 well microtiter plates (Costar), an initial dilution in dilution buffer is prepared from stock solutions in DMSO to start either 8 (1:6) or 12 (1:3.15) serial dilutions. For 1:6 dilutions, 50 μL for each dilution is transferred to 250 μL dilution buffer. For 1:3.15 dilutions, 50 μL for each dilution is transferred to 108 μL dilution buffer. Further details on concentrations will be provided in each experiment. Titrations are done using either 25-250 μL 8 channel electronic pipettor, 30-300 μL 12 channel manual pipettor (Spectrum), or the Multiprobe II. For screening, dilution plates are prepared in dilution buffer in 96 well microtiter plates from masterplates in 100% DMSO using the Multiprobe II or MiniTrak IV. After assay buffer and test compound has been added, the plates and the enzyme buffer are prewarmed at 37° C. for 15 minutes. After prewarming, CYP2D6 is added to then enzyme buffer and then added to the assay plate using 25-250 μL 8 channel electronic pipettor and the plates are incubated for 15 minutes at 37° C. After incubation, 50 μL stop solution is added using 25-250 μL 8 channel electronic pipettor. The plates are then counted on the Fusion (Packard Biosciences) for 4 sec/well using and excitation filter of 390 nm and an emission filter of 460 nm, intensity setting of 1, high detector sensitivity.
# Non-specific relative fluorescent units (RFU) are determined in the presence of 10 μM quinidine in wells A1, B1, and C1 of each plate and total RFU determined in wells D1, E1, F1 in the absence of test compound. Specific HAMC production is the difference between total and nonspecific. For each compound, a percent inhibition of HAMC production is calculated by: % I=(1−(A/B))*100 • where A=cpm specifically bound for test compound • B=cpm specifically bound in the absence of test compound For experiments where the plates are registered in the biological database, % I is determined automatically by the biological database. Titrations
# IC50's are calculated using nonlinear regression to a one-site model using GraphPad Prism or a VB algorithm fitting the data to that equation.
# [4] = target: CYP3A4 (Homo sapiens, UniProt P08684); test: Inhibition of CYP3A4 conversion of dibenzylfluorescein to fluorescein; type: in vitro ADME
# Chain of CYP3A4 (P08684 whole entry): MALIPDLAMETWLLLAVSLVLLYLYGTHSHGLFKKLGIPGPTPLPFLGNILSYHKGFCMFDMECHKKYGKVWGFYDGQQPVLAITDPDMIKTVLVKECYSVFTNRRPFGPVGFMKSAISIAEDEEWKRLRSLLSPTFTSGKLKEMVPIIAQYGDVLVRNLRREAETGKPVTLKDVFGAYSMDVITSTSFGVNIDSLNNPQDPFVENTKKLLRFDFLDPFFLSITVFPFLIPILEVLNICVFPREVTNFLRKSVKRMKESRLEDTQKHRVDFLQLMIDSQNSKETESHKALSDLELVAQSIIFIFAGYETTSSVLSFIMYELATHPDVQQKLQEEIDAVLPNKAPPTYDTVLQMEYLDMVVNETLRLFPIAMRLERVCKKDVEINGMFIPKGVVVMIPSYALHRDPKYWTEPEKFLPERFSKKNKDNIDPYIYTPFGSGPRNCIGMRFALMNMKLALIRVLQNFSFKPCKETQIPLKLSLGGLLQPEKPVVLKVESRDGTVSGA
# Procedure: (§4) Inhibition of CYP2C9 and CYP3A4
# (§5) These assays were carried out as described using CYP2C9 and CYP3A4 conversion of dibenzylfluorescein (DBF) to fluorescein (F).
# [5] = target: CYP2C9 (Homo sapiens, UniProt P11712); test: Inhibition of CYP2C9 conversion of dibenzylfluorescein to fluorescein; type: in vitro ADME
# Chain of CYP2C9 (P11712 whole entry): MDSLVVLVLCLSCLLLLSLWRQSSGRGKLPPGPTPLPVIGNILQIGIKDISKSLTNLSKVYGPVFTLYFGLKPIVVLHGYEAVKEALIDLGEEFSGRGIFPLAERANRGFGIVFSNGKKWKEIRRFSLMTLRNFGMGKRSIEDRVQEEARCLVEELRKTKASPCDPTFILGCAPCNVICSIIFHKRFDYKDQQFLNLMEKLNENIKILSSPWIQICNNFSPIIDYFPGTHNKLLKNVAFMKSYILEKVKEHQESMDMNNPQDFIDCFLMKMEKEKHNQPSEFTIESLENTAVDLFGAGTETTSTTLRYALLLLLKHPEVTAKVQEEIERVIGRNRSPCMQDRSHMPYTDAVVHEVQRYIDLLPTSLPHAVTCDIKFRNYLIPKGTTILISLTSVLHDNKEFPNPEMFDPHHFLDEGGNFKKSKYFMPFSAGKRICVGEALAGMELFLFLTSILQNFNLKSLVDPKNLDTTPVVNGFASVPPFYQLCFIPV
# Procedure: as §4, §5
# [6] = system: cytochrome P450 enzymes (CYP2D6, CYP3A4, CYP2C9); test: Overall evaluation of inhibition of major drug metabolizing hepatic cytochrome P450 enzymes; type: in vitro ADME, human
# [7] = inhibition of [3H]diprenorphine binding, cloned human μ receptor, read-out: Ki(μ)
# [8] = inhibition of [3H]diprenorphine binding, cloned human δ receptor, read-out: Ki(δ)
# [9] = MAMC to HAMC conversion, read-out: IC50(CYP2D6)
# [10] = DBF to fluorescein conversion, read-out: IC50(CYP3A4)
# [11] = DBF to fluorescein conversion, read-out: IC50(CYP2C9)
structure (smiles),measurement,setting,value
"CN(C(=O)Cc1cccc(CNS(C)(=O)=O)c1)[C@H](CN1CCCC1)c1ccccc1 [Example 11, 2-[3-(methanesulfonylamino-methyl)-phenyl]-N-methyl-N-[1-(S)-phenyl-2-pyrrolidin-1-yl-ethyl]-acetamide hydrochloride]",Ki,[1]; [7],1.9 µM
same,Ki,[2]; [8],1.5 µM
same,IC50,[3]; [9],1.4 µM
same,IC50,[4]; [10],> 10 µM
"CN(C(=O)Cc1ccc(CNS(C)(=O)=O)cc1)[C@H](CN1CCCC1)c1ccccc1 [Example 12, 2-[4-(methanesulfonylamino-methyl)-phenyl]-N-methyl-N-[1-(S)-phenyl-2-pyrrolidin-1-yl-ethyl]-acetamide]",Ki,[1],0.47 µM
same,Ki,[2],> 3 µM
same,IC50,[3],12 µM
same,IC50,[5],> 10 µM
same,IC50,[4],> 10 µM
"CN(C(=O)Cc1ccc(CNS(C)(=O)=O)cc1)[C@H](CN1CC[C@H](O)C1)c1ccccc1 [Example 13, N-{2-[3-(S)-hydroxy-pyrrolidin-1-yl]-1-(S)-phenyl-ethyl}-2-[4-(methanesulfonylamino-methyl)-phenyl]-N-methyl-acetamide hydrochloride]",Ki,[1],0.14 µM
same,Ki,[2],0.19 µM
same,IC50,[3]; [9],9.3 µM
same,IC50,[5]; [11],> 10 µM
same,IC50,[4]; [10],> 10 µM
"CCS(=O)(=O)NCc1ccc(CC(=O)N(C)[C@H](CN2CC[C@H](O)C2)c2ccccc2)cc1.Cl [Example 14, 2-[4-(ethanesulfonylamino-methyl)-phenyl]-N-{2-[3-(S)-hydroxy-pyrrolidin-1-yl]-1-(S)-phenyl-ethyl}-N-methyl-acetamide hydrochloride]",Ki,[1],1 µM
same,Ki,[2]; [8],0.51 µM
same,IC50,[3]; [9],> 10 µM
same,IC50,[5]; [11],> 10 µM
same,IC50,[4]; [10],> 10 µM
same,activity toward the cytochrome P450 (summary in words),[6],metabolically stable in regard to their activity toward the cytochrome P450
"CC(C)S(=O)(=O)NCc1ccc(CC(=O)N(C)[C@H](CN2CC[C@H](O)C2)c2ccccc2)cc1.Cl [Example 15, N-{2-[3-(S)-hydroxy-pyrrolidin-1-yl]-1-(S)-phenyl-ethyl}-N-methyl-2-{4-[(propane-2-sulfonylamino)-methyl]-phenyl}-acetamide hydrochloride]",Ki,[1]; [7],1.1 µM
same,Ki,[2]; [8],0.47 µM
same,IC50,[3]; [9],> 10 µM
same,IC50,[5]; [11],> 10 µM
same,IC50,[4]; [10],> 10 µM
same,activity toward the cytochrome P450 (summary in words),[6],metabolically stable in regard to their activity toward the cytochrome P450
"CCCS(=O)(=O)NCc1ccc(CC(=O)N(C)[C@H](CN2CC[C@H](O)C2)c2ccccc2)cc1.Cl [Example 16, N-{2-[3-(S)-hydroxy-pyrrolidin-1-yl]-1-(S)-phenyl-ethyl}-N-methyl-2-{4-[(propane-1-sulfonylamino)-methyl]-phenyl}-acetamide hydrochloride]",Ki,[1],0.73 µM
same,Ki,[2],0.1 µM
same,IC50,[3]; [9],> 10 µM
same,IC50,[5]; [11],> 10 µM
same,IC50,[4]; [10],> 10 µM
same,activity toward the cytochrome P450 (summary in words),[6],metabolically stable in regard to their activity toward the cytochrome P450
"CCCCS(=O)(=O)NCc1ccc(CC(=O)N(C)[C@H](CN2CC[C@H](O)C2)c2ccccc2)cc1 [Example 17, 2-{4-[(butane-1-sulfonylamino)-methyl]-phenyl}-N-{2-[3-(S)-hydroxy-pyrrolidin-1-yl]-1-(S)-phenyl-ethyl}-N-methyl-acetamide hydrochloride]",Ki,[1],1 µM
same,Ki,[2],0.17 µM
same,IC50,[3]; [9],7.2 µM
same,IC50,[5]; [11],> 10 µM
same,IC50,[4]; [10],7 µM
"CN(C(=O)Cc1ccc(CNS(=O)(=O)c2ccccc2)cc1)[C@H](CN1CC[C@H](O)C1)c1ccccc1 [Example 18, 2-[4-(benzenesulfonylamino-methyl)-phenyl]-N-{2-[3-(S)-hydroxy-pyrrolidin-1-yl]-1-(S)-phenyl-ethyl}-N-methyl-acetamide hydrochloride]",Ki,[1]; [7],0.88 µM
same,Ki,[2]; [8],0.083 µM
same,IC50,[3]; [9],3.4 µM
same,IC50,[5]; [11],8 µM
same,IC50,[4]; [10],4.3 µM
"CN(C(=O)Cc1ccc(CNS(=O)(=O)c2ccc(F)cc2)cc1)[C@H](CN1CC[C@H](O)C1)c1ccccc1 [Example 19, 2-{4-[(4-fluoro-benzenesulfonylamino)-methyl]-phenyl}-N-{2-[3-(S)-hydroxy-pyrrolidin-1-yl]-1-(S)-phenyl-ethyl}-N-methyl-acetamide hydrochloride]",Ki,[1],1.1 µM
same,Ki,[2],0.064 µM
same,IC50,[3]; [9],6.3 µM
same,IC50,[5]; [11],> 10 µM
same,IC50,[4]; [10],2.9 µM
"Cc1ccc(S(=O)(=O)NCc2ccc(CC(=O)N(C)[C@H](CN3CC[C@H](O)C3)c3ccccc3)cc2)cc1 [Example 20, N-{2-[3-(S)-hydroxy-pyrrolidin-1-yl]-1-(S)-phenyl-ethyl}-N-methyl-2-{4-[(toluene-4-sulfonylamino)-methyl]-phenyl}-acetamide hydrochloride]",Ki,[1]; [7],0.7 µM
same,Ki,[2],0.028 µM
same,IC50,[3]; [9],4.9 µM
same,IC50,[5]; [11],> 10 µM
same,IC50,[4]; [10],> 10 µM
"CN(C(=O)Cc1ccc(CNS(=O)(=O)Cc2ccccc2)cc1)[C@H](CN1CC[C@H](O)C1)c1ccccc1 [Example 21, N-{2-[3-(S)-hydroxy-pyrrolidin-1-yl]-1-(S)-phenyl-ethyl}-N-methyl-2-[4-(phenylmethanesulfonylamino-methyl)-phenyl]-acetamide hydrochloride]",Ki,[1]; [7],0.48 µM
same,Ki,[2],0.17 µM
same,IC50,[3]; [9],5.3 µM
same,IC50,[5]; [11],> 10 µM
same,IC50,[4]; [10],5.6 µM
"CN(C(=O)Cc1ccc(NS(C)(=O)=O)cc1)[C@H](CN1CC[C@H](O)C1)c1ccccc1 [Example 25, N-{2-[3-(S)-hydroxy-pyrrolidin-1-yl]-1-(S)-phenyl-ethyl}-2-(4-methanesulfonylamino-phenyl)-N-methyl-acetamide hydrochloride]",Ki,[1],0.1 µM
same,Ki,[2],0.18 µM
same,IC50,[3]; [9],4.9 µM
same,IC50,[4]; [10],> 10 µM
